# Source: patent publication US20100317604A1, “FORSYTHIASIDE INJECTION PREPARATION AND PREPARATIVE METHOD THEREOF” (Shanghai Youseen New Medicine Exploition Co., Ltd, priority 2006, published 2010)
# Test: Choice of the pH value (HPLC peak area of Forsythiaside)
# Assay type: physicochemical
# Details: for Peak Area: HPLC peak area of Forsythiaside in water
# Excerpt: Taking appropriate amount of Forsythiaside, adding water to it for dissolution. Adjusting the pH value to 3.0, 3.5, 4.0, 4.5, 5.0, 5.5, 6.0 separately, then determining the peak area value of Forsythiaside at different pH value by HPLC to investigate the influence on the content of Forsythiaside caused by different pH value.
substance,measurement,setting,value
Forsythiaside,Peak Area,pH Value 3.0,1410.0
same,Peak Area,pH Value 3.5,1499.0
same,Peak Area,pH Value 4.0,1519.8
same,Peak Area,pH Value 4.5,1523.1
same,Peak Area,pH Value 5.0,1494.5
same,Peak Area,pH Value 5.5,1480.6
same,Peak Area,pH Value 6.0,1423.5
same,content of Forsythiaside at different pH value,pH value 3.0-6.0,not sufficiently varied
same,content of Forsythiaside at different pH value,pH value 4.5,highest content
